Results as given in US9211313B2, “Methods and compound to inhibit Ca2+ permeable cation conductance” (priority 2011, dated 2015).

Tested on: deoxygenation-activated cation conductance in human SS red cells
Assay: On-cell patch clamp of deoxygenation-activated cation conductance, symmetric Na methanesulfonate
Assay type: cell-based
Conditions: on-cell patch; for effect on deoxygenation-induced increase in cation conductance: 1 μM in the pipette / outside of membrane
Description: Blood cell preparation: Human SS and AA blood was obtained under IRB-approved protocols of Children's Hospital and Beth Israel Deaconess Medical Center. After buffy coat removal and 5 washes in standard human red cell wash solution containing (in mM) 150 choline Cl, 1 MgCl, and 10 Tris-MOPS, pH 7.4, red cells were resuspended in storage solution containing (in mM) 145 KCl, 15 NaCl, and 10 HEPES, pH 7.4, then kept at 4° C. until used. Human red cells allowed to settle on coverslips were mounted on an inverted microscope in a 200 μl open chamber (WPI, Sarasota, Fla.) and superfused 15 min at room temperature by bath solution containing (in mM) 150 Na methanesulfonate, 10 Na EDTA, and 10 Na HEPES, pH 7.4.
Mouse red cells allowed to settle on coverslips were superfused 15 min with bath solution containing (in mM) either 150 mM Na methanesulfonate, 10 Na EDTA, and 10 Na HEPES, pH 7.4; or 140 NaCl, 4 KCl, 1CaCl2, 1 MgCl2, 10 Na HEPES, pH 7.4. Deoxygenation was achieved by switching superfusate to the same solution gassed ≧30 min prior to the experiment with 100% N2, and by flushing of the perfusion chamber with N2 during the deoxygenation period. The resulting bath pO2 was 18 mm Hg as measured by oxygen electrode (WPI). In the experiments of FIG. 1, deoxygenated cells were subsequently re-oxygenated by exposure to the same superfusate equilibrated with room air.
Washed human or mouse red cells in solution containing (in mM) 140 NaCl, 5 KCl, 1 CaCl2, 1 MgCl2, 10 Na HEPES, pH 7.4 were exposed for 1 hr on a rotary platform in a 37° C. incubator to 25 ppm carbon monoxide (CO) in 5% CO2. CO-exposed cells were then subjected to patch clamp or to calcium imaging experiments within 60 min after return to room air, using the solutions indicated.
On-cell patch clamp: Borosilicate pipettes (Corning 7052) pulled with a Narishige two stage puller or a Sutter P97 puller and fire-polished to resistances of 10-20 MΩ were front-filled and then backfilled. Symmetric bath and pipette solutions for studies of seal resistance stability during reversibility tests of the deoxygenation-activated conductance in SAD mouse red cells were (in mM) 140 NaCl, 4 KCl, 1 CaCl2, 1 MgCl2, 10 Na HEPES, pH 7.4. These conditions yielded tight seals in 13% of patch attempts on SAD cells. For study of deoxygenation-induced monovalent cation permeation in the absence of bath Ca^2+ and Mg^2+ recorded in SAD and Berkeley mouse cells and in human cells, symmetric bath and pipette solutions contained (in mM) 150 Na methanesulfonate, 10 Na EDTA, and 10 Na HEPES, pH 7.4. These conditions yielded tight seals in 16% of patch attempts on SAD mouse red cells, 26% of attempts on Berkeley mouse cells, and 30% of attempts on human SS cells. For study of Ca^2+ permeation in human SS cells, bath and pipette solutions contained (in mM) 100 CaCl2, 10 Na HEPES, pH 7.4. These conditions yielded tights seals on 44% of attempts. For all conditions tested in human red cells, 70% of tight seals were sustained through the solution change accompanying deoxygenation to allow recording of current activity.
On-cell patch currents were recorded with the Axopatch 1-D amplifier (Axon Instruments/Molecular Devices, Sunnyvale, Calif.). Holding potential was −Vp=−50 mV (expressed as the negative of the pipette potential (e.g., equivalent to the intracellular potential with respect to the pipette). To determine current-voltage relationships (I-V curves) in Fetchex or Clampex (PCLAMP, Axon Instruments), the realtime control window in gap-free mode was used to record current traces of 10-30 sec duration at holding potentials ranging from −100 to +100 mV, in 25 mV increments. The bath reference electrode was a silver chloride wire with a 3 M KCl agar bridge. Data was filtered at 500 Hz, digitized at 2 kHz by Clampex, and analyzed offline by Fetchan and Pstat or by Clampfit subroutines of PCLAMP. Holding potentials in on-cell patch experiments were expressed as −Vp, the negative of the pipette potential.

With “Grammastola spatulata mechanotoxin 4 (GCLEFWWKCNPNDDKCCRPKLKCSKLFKLCNFSF; listed as Grammastola spatulata) [GsMTx-4]” the “effect on deoxygenation-induced increase in cation conductance” value was “prevented”, the “effect on deoxygenation-induced increase in cation conductance” value (listed as GsMTx4) was “completely inhibit” and the NPo after deoxygenation (1 μM in the pipette, n=6) was 0.003±0.003.
